{"source": "patent US20080032992A1", "about": "“New Pyridine Analogues V” (ASTRAZENECA AB, priority 2006, published 2008)", "molecular_target": "T1, P2Y12 receptor (Homo sapiens, UniProt Q9H244)", "T1 construct": "expressed in transfected cells; host or cells: CHO cells (membranes)", "T1 sequence (Q9H244 whole entry)": "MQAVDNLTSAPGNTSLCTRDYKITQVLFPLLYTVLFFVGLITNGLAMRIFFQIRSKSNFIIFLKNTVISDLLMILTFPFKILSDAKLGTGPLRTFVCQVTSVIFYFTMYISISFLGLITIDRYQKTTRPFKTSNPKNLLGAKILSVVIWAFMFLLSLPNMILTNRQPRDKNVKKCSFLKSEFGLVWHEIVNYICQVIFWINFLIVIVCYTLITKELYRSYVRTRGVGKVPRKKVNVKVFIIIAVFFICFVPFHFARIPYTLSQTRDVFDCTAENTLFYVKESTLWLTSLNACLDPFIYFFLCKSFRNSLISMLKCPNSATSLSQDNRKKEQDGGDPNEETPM", "assay": "Functional inhibition of 2-Me-S-ADP induced P2Y12 signalling (35S-GTPγS binding, membranes from P2Y12 transfected CHO-cells)", "type": "biochemical", "details": "EC80 concentration of agonist 2-methyl-thio-adenosine diphosphate, 30° C. for 45 min", "procedure": "Functional inhibition of the P2Y12 receptor can be measured by in vitro assays using cell membranes from P2Y12 transfected CHO-cells, the methodology is indicated below.\nFunctional inhibition of 2-Me-S-ADP induced P2Y12 signalling: 5 μg of membranes were diluted in 200 μl of 200 mM NaCl, 1 mM MgCl2, 50 mM HEPES (pH 7.4), 0.01% BSA, 30 μg/ml saponin and 10 μM GDP. To this was added an EC80 concentration of agonist (2-methyl-thio-adenosine diphosphate), the required concentration of test compound and 0.1 μCi ^35S-GTPγS. The reaction was allowed to proceed at 30° C. for 45 min. Samples were then transferred on to GF/B filters using a cell harvester and washed with wash buffer (50 mM Tris (pH 7.4), 5 mM MgCl2, 50 mM NaCl). Filters were then covered with scintillate and counted for the amount of ^35S-GTPγS retained by the filter. Maximum activity was that determined in the presence of the agonist and minimum activity in the absence of the agonist following subtraction of the value determined for non-specific activity. The effect of compounds at various concentrations was plotted according to the equation y=A+((B−A)/(1+((C/x)ˆD))) and IC50 estimated where\nA is the bottom plateau of the curve i.e. the final minimum y value\nB is the top of the plateau of the curve i.e. the final maximum y value\nC is the x value at the middle of the curve. This represents the log EC50 value when A+B=100 […]", "data": [{"smiles": "CCOC(=O)c1cc(C#N)c(N2CCN(Cc3cn(-c4ccccc4)nn3)CC2)nc1C", "note": "[Example 2, Ethyl 5-cyano-2-methyl-6-{4-[(1-phenyl-1H-1,2,3-triazol-4-yl)methyl]piperazin-1-yl}nicotinate]", "values": [{"measurement": "IC50", "value": 690, "unit": "nM"}]}, {"smiles": "CCOC(=O)c1cc(C#N)c(N2CCC(c3nnc(-c4ccccc4)[nH]3)CC2)nc1C", "note": "[Example 3, Ethyl 5-cyano-2-methyl-6-[4-(5-phenyl-4-h-1,2,4-triazol-3-yl)piperidin-1-yl]nicotinate]", "values": [{"measurement": "IC50", "value": 330, "unit": "nM"}]}]}
